Reference: BindingDB's records for PubMed 34236862 (Lodz University of Technology, 2021)

Experiment: Inhibition of Rac1 GTPase in human MDA-MB-231 cells assessed as inhibition of cell proliferation treated for 72 hrs by MTT assay

Cc1cc(C)cc(NC(=N)Nc2ccccc2C(F)(F)F)c1
IC50: 21 µM
